Source: patent US20140323521A1, “PHARMACEUTICAL COMPOSITIONS AND ADMINISTRATIONS THEREOF” (Vertex Pharmaceuticals Incorporated, priority 2011, published 2014)

Assays:
Assay in all cases: FRT cell Ussing chamber chloride transport assay
Format in all cases: cell-based
human CFTR mutant G1244E = target: T1, human CFTR mutant G1244E (Homo sapiens, UniProt P13569, G1244E); conditions: FRT cells expressing G1244E CFTR
T1 construct: expressed in transfected cells; host or cells: Fisher rat thyroid (FRT) FlpIn cells, pcDNA5/FRT
T1 sequence (P13569 whole entry G1244E): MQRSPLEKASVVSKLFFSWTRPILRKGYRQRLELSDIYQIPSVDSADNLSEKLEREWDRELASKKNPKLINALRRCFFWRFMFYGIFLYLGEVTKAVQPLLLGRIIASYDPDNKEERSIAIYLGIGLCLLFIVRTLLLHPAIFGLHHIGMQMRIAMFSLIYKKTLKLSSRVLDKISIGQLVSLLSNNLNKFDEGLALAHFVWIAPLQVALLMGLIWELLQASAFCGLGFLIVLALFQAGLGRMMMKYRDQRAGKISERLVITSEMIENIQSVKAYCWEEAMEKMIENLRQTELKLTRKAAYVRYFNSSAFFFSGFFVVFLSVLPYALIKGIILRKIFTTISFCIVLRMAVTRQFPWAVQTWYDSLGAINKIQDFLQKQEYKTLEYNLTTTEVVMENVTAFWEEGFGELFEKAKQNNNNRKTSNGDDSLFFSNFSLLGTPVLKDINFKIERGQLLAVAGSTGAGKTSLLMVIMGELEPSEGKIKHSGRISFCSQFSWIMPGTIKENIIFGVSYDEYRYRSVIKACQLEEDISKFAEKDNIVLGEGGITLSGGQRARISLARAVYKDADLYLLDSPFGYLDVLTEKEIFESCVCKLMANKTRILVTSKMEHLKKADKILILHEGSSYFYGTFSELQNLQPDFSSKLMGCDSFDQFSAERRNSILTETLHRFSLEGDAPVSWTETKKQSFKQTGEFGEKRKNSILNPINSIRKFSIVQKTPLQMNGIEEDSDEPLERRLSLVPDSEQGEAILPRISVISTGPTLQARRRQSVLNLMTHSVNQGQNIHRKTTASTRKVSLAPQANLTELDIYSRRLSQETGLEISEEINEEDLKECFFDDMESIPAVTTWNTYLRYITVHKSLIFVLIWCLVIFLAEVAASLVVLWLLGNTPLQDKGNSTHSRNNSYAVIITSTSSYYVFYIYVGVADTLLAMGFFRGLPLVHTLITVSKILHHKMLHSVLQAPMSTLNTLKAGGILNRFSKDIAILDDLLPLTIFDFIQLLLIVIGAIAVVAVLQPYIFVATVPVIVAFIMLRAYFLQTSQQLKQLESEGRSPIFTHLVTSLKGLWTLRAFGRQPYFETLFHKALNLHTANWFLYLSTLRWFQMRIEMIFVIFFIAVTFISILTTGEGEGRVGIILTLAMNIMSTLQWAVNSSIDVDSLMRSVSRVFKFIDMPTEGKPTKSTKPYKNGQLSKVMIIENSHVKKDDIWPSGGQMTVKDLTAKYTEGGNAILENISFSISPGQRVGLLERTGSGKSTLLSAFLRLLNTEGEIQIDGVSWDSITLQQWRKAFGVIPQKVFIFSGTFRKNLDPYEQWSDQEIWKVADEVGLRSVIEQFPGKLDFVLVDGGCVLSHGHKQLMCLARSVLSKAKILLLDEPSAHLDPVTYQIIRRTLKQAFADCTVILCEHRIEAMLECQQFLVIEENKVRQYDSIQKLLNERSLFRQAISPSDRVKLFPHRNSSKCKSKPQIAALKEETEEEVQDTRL
Source text: (§1) DNA cloning: Wild-type CFTR coding region was inserted into pcDNA5/FRT (Invitrogen, San Diego, Calif.) between EcoRV and ApaI.
(§2) Single CFTR gene mutations were introduced into the wild-type CFTR coding sequence by using QuickChange XL site-directed mutagenesis kit (Stratagene, Cambridge, UK). The CFTR coding region as well as its promoter sequence and 3′ untranslated sequence was fully sequenced to confirm the mutagenesis reaction.
(§3) The CFTR gene was stably expressed in Fisher rat thyroid (FRT) cells through FlpIn system. The FRT-FlpIn host cell line was generated by stably transfecting FRT cells with pFRT/lacZeo. The single integration of a FRT site was confirmed by Southern blot. After the mutant CFTR DNA was transfected into the FRT-FlpIn host cell line, the cells were incubate at 37° C. in Coon's modified Ham's F12 containing 10% FBS, 1% Pen/Strep, and 36 ml of Na-Bicarbonate for up to 8 passages under hygromycin selection (200 ug/ml).
(§4) All cells were grown on Costar® Snapwell™ cell culture inserts at maintained at 37° C. prior to recording. The cell culture inserts were mounted into an Ussing chamber (VCC MC8; Physiologic Instruments, Inc., San Diego, Calif.) to record ISC in the voltage-clamp mode (Vhold=0 mV). For FRT cells, the basolateral membrane was permeabilized with 360 μg/ml Nystatin and a basolateral to apical Cl− gradient was established. The basolateral bath solution contained (in mM); 135 NaCl, 1.2 CaCl2, 1.2 MgCl2, 2.4 K2HPO4, 0.6 KHPO4, 10 N-2-hydroxyethylpiperazine-N′-2-ethanesulfonic acid (HEPES), and 10 dextrose (titrated to pH 7.4 with NaOH). The apical NaCl was replaced by equimolar Na+ gluconate (titrated to pH 7.4 with NaOH). For HBE cells, the ISC was measured in the presence of a basolateral to apical Cl− gradient. The normal Cl− solution contained (in mM) 145 NaCl, 3.3 K2HPO4, 1.2 MgCl2, 1.2 CaCl2, 10 Glucose, 10 HEPES (pH adjusted to 7.35 with NaOH) and the low Cl− solution contained (in mM) 145 NaGluconate, 1.2 MgCl2, 1.2 CaCl2, 10 glucose, 10 HEPES (pH adjusted to 7.35 with NaOH). All recordings were digitally acquired using a Acquire and Analyze software (version 2; Physiologic Instruments, Inc. San Diego, Calif.).
(§5) The 10 μM forskolin stimulated response in FRT cell expressing different mutant CFTR forms or in HBE cells isolated from CF patients was normalized to the 10 μM forskolin-stimulated response in FRT cells expressing wild-type CFTR or in HBE isolated from non-CF individuals and expressed as % wild-type CFTR. In HBE, amiloride was added prior to forskolin application to block the epithelial Na+ channel.

human CFTR mutant G1349D = target: T2, human CFTR mutant G1349D (Homo sapiens, UniProt P13569, G1349D); conditions: FRT cells expressing G1349D CFTR
T2 construct: expressed in transfected cells; host or cells: Fisher rat thyroid (FRT) FlpIn cells, pcDNA5/FRT
T2 sequence (P13569 whole entry G1349D): as the sequence (P13569 whole entry G1244E) above, with E1244G, G1349D counted along it
Source text: as §1, §2, §3, §4, §5

human CFTR mutant G178R = target: T3, human CFTR mutant G178R (Homo sapiens, UniProt P13569, G178R); conditions: FRT cells expressing G178R CFTR
T3 construct: expressed in transfected cells; host or cells: Fisher rat thyroid (FRT) FlpIn cells, pcDNA5/FRT
T3 sequence (P13569 whole entry G178R): as the sequence (P13569 whole entry G1244E) above, with G178R, E1244G counted along it
Source text: as §1, §2, §3, §4, §5

human CFTR mutant G551S = target: T4, human CFTR mutant G551S (Homo sapiens, UniProt P13569, G551S); conditions: FRT cells expressing G551S CFTR
T4 construct: expressed in transfected cells; host or cells: Fisher rat thyroid (FRT) FlpIn cells, pcDNA5/FRT
T4 sequence (P13569 whole entry G551S): as the sequence (P13569 whole entry G1244E) above, with G551S, E1244G counted along it
Source text: as §1, §2, §3, §4, §5

human CFTR mutant G970R = target: T5, human CFTR mutant G970R (Homo sapiens, UniProt P13569, G970R); conditions: FRT cells expressing G970R CFTR
T5 construct: expressed in transfected cells; host or cells: Fisher rat thyroid (FRT) FlpIn cells, pcDNA5/FRT
T5 sequence (P13569 whole entry G970R): as the sequence (P13569 whole entry G1244E) above, with G970R, E1244G counted along it
Source text: as §1, §2, §3, §4, §5

human CFTR mutant S1251N = target: T6, human CFTR mutant S1251N (Homo sapiens, UniProt P13569, S1251N); conditions: FRT cells expressing S1251N CFTR
T6 construct: expressed in transfected cells; host or cells: Fisher rat thyroid (FRT) FlpIn cells, pcDNA5/FRT
T6 sequence (P13569 whole entry S1251N): as the sequence (P13569 whole entry G1244E) above, with E1244G, S1251N counted along it
Source text: as §1, §2, §3, §4, §5

human CFTR mutant S1255P = target: T7, human CFTR mutant S1255P (Homo sapiens, UniProt P13569, S1255P); conditions: FRT cells expressing S1255P CFTR
T7 construct: expressed in transfected cells; host or cells: Fisher rat thyroid (FRT) FlpIn cells, pcDNA5/FRT
T7 sequence (P13569 whole entry S1255P): as the sequence (P13569 whole entry G1244E) above, with E1244G, S1255P counted along it
Source text: as §1, §2, §3, §4, §5

human CFTR mutant S549N = target: T8, human CFTR mutant S549N (Homo sapiens, UniProt P13569, S549N); conditions: FRT cells expressing S549N CFTR
T8 construct: expressed in transfected cells; host or cells: Fisher rat thyroid (FRT) FlpIn cells, pcDNA5/FRT
T8 sequence (P13569 whole entry S549N): as the sequence (P13569 whole entry G1244E) above, with S549N, E1244G counted along it
Source text: as §1, §2, §3, §4, §5

human CFTR mutant S549R = target: T9, human CFTR mutant S549R (Homo sapiens, UniProt P13569, S549R); conditions: FRT cells expressing S549R CFTR
T9 construct: expressed in transfected cells; host or cells: Fisher rat thyroid (FRT) FlpIn cells, pcDNA5/FRT
T9 sequence (P13569 whole entry S549R): as the sequence (P13569 whole entry G1244E) above, with S549R, E1244G counted along it
Source text: as §1, §2, §3, §4, §5

Measured: increase in chloride transport, relative to baseline chloride transport

CC(C)(C)c1cc(C(C)(C)C)c(NC(=O)c2c[nH]c3ccccc3c2=O)cc1O [Compound 1, N-[2,4-bis(1,1-dimethylethyl)-5-hydroxyphenyl]-1,4-dihydro-4-oxoquinoline-3-carboxamide]
greater than 10 fold: all assays above
